{
  "source": "patent US5932541A",
  "about": "“Method of adjusting the circadian rhythm of a mammal” (Gruenenthal GmbH, priority 1998, dated 1999)",
  "key": {"[1]": {"test_system": "circadian rhythm of hamster wheel running activity", "test": "Phase shift of the circadian rhythm of hamster wheel running activity after intraperitoneal injection", "format": "in vivo, hamster (Mesocricetus auratus)", "method": "A preliminary study was conducted to determine whether peripherally administered 6-methyl-5-oxo-3-thiomorpholinyl-carbonyl-L-histidyl-L-prolinamide (Montirelin) is capable of phase shifting the circadian rhythm of hamster wheel running activity. Twenty-four male hamsters [Mesocricetus auratus; 8-12 weeks of age; Charles River LAK:LVG(SYR)] were housed individually in cages equipped with running wheels, and food and water freely available. Animals were maintained in light-tight, ventilated cabinets (six cages per cabinet) in which the lighting schedule could be controlled. Each animal's wheel running activity was monitored continuously throughout each experiment using a data acquisition software kit (Chronobiology, Stanford, Calif.).\n(§1) Animals were maintained initially in a 14:10 hour light:dark cycle for 7-10 days, then transferred to constant dim red lighting (RR) conditions for the remainder of the experiment (40-60 days). After free-running for 7 days in dim red lighting, animals either received Montirelin or vehicle intraperitoneally. The daily onset of wheel-running activity was defined as circadian time 12 (CT 12), and this time was used as a reference point in determining appropriate circadian injection times. The test animals were divided into eight groups of three animals each, and intraperitoneal injections of the active compound at dosage levels of 10 or 20 mg/kg or of the vehicle alone were administered to respective test groups at circadian time 3 (CT 3) or circadian time 16 (CT 16). The order of injections and time points was randomized. An additional 4 animals maintained in similar lighting conditions were visually observed for two hours post-injection of Montirelin (10 or 20 mg/kg) to determine any overt behavioral effects exerted by this compound. A total of 9 injections were made for each of the eight treatment groups.\nPhase shifts in the circadian activity rhythm were determined by measuring the phase difference between eye-fitted lines connecting the onset of activity for a period of ten days before and ten days after an experimental manipulation."}, "[2]": {"test_system": "Sprague-Dawley rats", "test": "Subacute repeated-dose intravenous toxicity study with four-week recovery", "description": "Eight nine SPF Slc:SD rats of both sexes (age: four weeks, body weight: 70.0-81.6 g) were purchased from Shizuoka Agriculture Cooperative Association for Laboratory Animals. During a one-week quarantine/acclimation period, the animals were measured for body weight and observed for any general symptoms, and healthy animals showing normal growth were selected and used in the experiment at the age of five weeks.\nMales and females were used in five groups (including the control group) of 10 animals/sex, and additional 10 animals/sex ere added to the control, 0.5 mg/kg and 50 mg/kg groups to investigate the reversibility of the toxic effect of the test substance. All these animals were randomized to each group by weight stratification so that the differences in initial mean body weight were within 2% between groups.\nThis study also included the vehicle control group.\nDosing solutions were prepared by dissolving a weighed amount of the test substance in physiological saline at a concentration of 1 W/V % using a volumetric flask. Lower dosing solutions were obtained by successive 10-fold dilution of the initial solution. The respective dosing solution was repeatedly administered intravenously once daily for 35 days into the tail vein at a rate of 0.2 ml/10 sec. using a 1/4 syringe for injection. The treatment was given at a constant volume of 0.5 ml/100 g body weight in all dose groups, and the control group was treated with physiological saline at the same volume in the same manner.\nClinical signs in all animals were observed daily between two and four hours after dosing according to Irwin's method of comprehensive observational assessment, and the type, severity, onset time and disappearance time of toxic symptoms were recorded. During the recovery period, the clinical observation was performed once daily in the morning in the same manner. The body weight, food consumption and water consumption were measured in all animals three times weekly in the morning throughout the treatment and recovery periods and recorded."}, "[3]": {"test_system": "hamsters", "test": "Visual observation of overt behavior for two hours post-injection", "format": "in vivo, hamster (Mesocricetus auratus)", "method": "as §1"}, "[4]": {"details": "20 mg/kg i.p., at both CT 3 and CT 16, individual hamsters"}, "[5]": {"details": "both sexes, 50 mg/kg, within the range of normal physiological variations"}},
  "data": [
    {"molecule": "CC1SCC(C(=O)N[C@@H](Cc2c[nH]cn2)C(=O)N2CCC[C@H]2C(N)=O)NC1=O", "note": "(stereo partly drawn) [Montirelin, 6-methyl-5-oxo-3-thiomorpholinylcarbonyl-L-histidyl-L-prolinamide]", "values": [
      {"measurement": "Effects on the Phase of Wheel Running Activity, Group Averages", "setting": "[1]; 10 mg/kg i.p. at CT 3", "result": "4.3 ± 2.2", "unit": "min"},
      {"measurement": "Effects on the Phase of Wheel Running Activity, Group Averages", "setting": "[1]; 10 mg/kg i.p. at CT 16", "result": "3.5 ± 2.3", "unit": "min"},
      {"measurement": "Effects on the Phase of Wheel Running Activity, Group Averages", "setting": "[1]; 20 mg/kg i.p. at CT 3", "result": "5.5 ± 2.4", "unit": "min"},
      {"measurement": "Effects on the Phase of Wheel Running Activity, Group Averages", "setting": "[1]; 20 mg/kg i.p. at CT 16", "result": "3.1 ± 2.0", "unit": "min"},
      {"measurement": "phase advances in individual hamsters", "setting": "[1]; [4]", "result": "≈ 16 min."},
      {"measurement": "phase delays in individual hamsters", "setting": "[1]; [4]", "result": "≈ 10 min."},
      {"measurement": "clinical signs: polyuria", "setting": "[2]; 5 mg/kg or higher groups, almost all males and females, peak about one hour after dosing day 0-3, disappearing by day 4-28", "result": "transient polyuria"},
      {"measurement": "clinical signs: systemic tremor", "setting": "[2]; 50 mg/kg group, both sexes, from day 0, disappearing by day 6 in males, day 4 in females", "result": "systemic tremor was observed transiently during the injection"},
      {"measurement": "blood biochemical parameters", "setting": "[2]; all treatment groups", "result": "No treatment-related abnormalities"},
      {"measurement": "gross changes at autopsy", "setting": "[2]; all treatment groups", "result": "no treatment-related grossly abnormal changes"},
      {"measurement": "histopathology of other organs (light microscopy); liver and kidney (electron microscopy)", "setting": "[2]; all treatment groups", "result": "no remarkable changes"},
      {"measurement": "histopathology: hypertrophy of serous cells in the submaxillary gland", "setting": "[2]; both sexes of all treatment groups", "result": "showed dose-dependency"},
      {"measurement": "water consumption", "setting": "[2]; both sexes receiving 5 mg/kg or above, day 2-3 until about week 4", "result": "increased"},
      {"measurement": "red blood cell count, hemoglobin and hematocrit", "setting": "[2]; [5]", "result": "increasing tendency"},
      {"measurement": "total white blood cell count", "setting": "[2]; [5]", "result": "decreasing tendency"},
      {"measurement": "food consumption and body weight, females", "setting": "[2]; females", "result": "unremarkable"},
      {"measurement": "reversibility of observed changes", "setting": "[2]; four-week recovery after discontinuing administration", "result": "All observed changes were reversed"},
      {"measurement": "urinary findings (urine volume)", "setting": "[2]; males and females receiving 5 mg/kg or above, week 2 and 5 of treatment", "result": "unremarkable except for an increase in urine volume"},
      {"measurement": "body weight gain, males", "setting": "[2]; males, particularly 0.5, 5 and 50 mg/kg", "result": "suppressed"},
      {"measurement": "death", "setting": "[2]; rats, i.v. once daily 35 days, 0.05-50 mg/kg/day, administration and recovery periods", "result": "no death occurred"},
      {"measurement": "food consumption, males", "setting": "[2]; treated males compared with control males", "result": "tended to decrease food consumption"},
      {"measurement": "overt behavior versus vehicle", "setting": "[3]; 10 mg/kg i.p. at CTs 3 and 16", "result": "no differences in overt behavior"},
      {"measurement": "overt behavior versus vehicle", "setting": "[3]; 20 mg/kg i.p. at both CT 3 and CT 16", "result": "clear differences in overt behaviors"}
    ]}
  ]
}
